This is an account of results in patent US5180742A, “Quinone derivatives, their production and use” (Takeda Chemical Industries, Ltd., priority 1984, dated 1993).

Series [1] concerns O2^- production in guinea pigs peritoneal macrophages. Nature of the series: Inhibitory effect on O2- production in guinea pig peritoneal macrophages (chemiluminescence). The class given is cell-based, guinea pig (Hartley). The conditions noted are these: Cavia porcellus, Peritoneal macrophage, 3 experiments. The method, then: Superoxide (O2^-) Production in Guinea Pig Peritoneal Macrophages
Male Hartley guinea pigs weighing 400-450 g were given intraperitoneally 5 ml of liquid paraffin. Four days later, 15 ml of Hank's buffer were administered into the peritoneal cavity for harvest of peritoneal cells. Macrophages in the peritoneal cells were purified by the method of Wood, P. R. [J. Immunol. Methods, 28, 117-124 (1979)].
The purity of macrophages was more than 95%. The reaction mixture contained 75 μl of macrophages (1×10^7 cells/ml), 5 μl of luminol, 10 μl of phorbol myristate acetate and 10 μl of drugs in a total volume of 100 μl. O2^- Product was assayed by chemiluminescence. Drugs were dissolved in a 10% dimethyl sulfoxide.

In series [2] the test system is Immunoglobulin-G1 mediated bronchoconstriction reaction. Nature of the series: Action on immunoglobulin-G1 mediated bronchoconstriction reaction in guinea pigs. Particulars: Cavia porcellus; 20 mg/kg oral, 1 hour before antigen. The class given is in vivo, Hartley guinea pigs. The protocol:
Action on the Immunoglobulin-G1 Mediated Bronchoconstriction Reaction in Guinea Pigs
In accordance with the method of Orange and Moore (Orange, R. P. and Moore E. G. , J. Immunol., 116, 392-397, 1976), female and male Hartley guinea pigs weighing about 350 g were sensitized by intraperitoneal application of an emulsion (1 ml) composed of egg albumin (1 mg) and Freund's complete adjuvant (produced by Wako Pure-Chemical Industries, Ltd. of Japan). 3 Weeks after the sensitization, a serum antibody level in the sensitized guinea pigs was measured by means of the 3-hours passive cutaneous anaphylaxis (PCA) reaction in guinea pigs. […] The broncoconstriction reaction resulting from the antigen-antibody reaction was measured in accordance with the Konzett-Rossler method (Konzett, H. and Rossler, R., Naunyn-Schmiedeberg'ss Arch. exp. Path. pharmak., 195, 71-74, 1940). The guinea pigs were fixed on the dorsal position under anesthesia with a urethane (1.5 g/kg given intraperitonealy). An incision was made through the trachea, which was connected to an artificial respirator (manufactured by Harvard Co.) through an endotracheal tube, with a side tube of the endotracheal tube being attached to a brochoconstricting transducer (type 7020, manufactured by Ugobasile Co.). While an air volume per ventilation was adjusted to 5 to 7 ml and an air ventilation rate was controlled at 70 times/min., with a load pressure to the lung set at 10 cm H2 O, the overflown air volume was recorded on Rectigraphy-8S (manufactured by Sanei Sokki Inc. of Japan) through a transducer. After 1 mg/kg of gallamine triethiodide was given intravenously to the animals, 1 mg/kg of antigen, egg albumin dissolved in physiological saline, was applied intravenously to induce a brochoconstriction reaction. The bronchconstriction reaction was recorded for the period of time of 15 minutes. A drug was suspended in 5% gum arabic solution, and given orally 1 hour before the application of the antigen. Percent inhibition of the immunoglobuin G1 mediated bronchoconstriction reaction in guinea pigs are shown below in Table 3.

In series [3] the test system is LTD4-induced bronchoconstriction. The series is described as follows: Effect on LTD4-induced bronchoconstriction in guinea pigs. The format is in vivo. The method, then: Effect on LTD4 -Induced Brochoconstriction in Guinea Pigs
Bronchoconstriction in guinea pigs was measured by the method of Konzett-Rossler[Naunyn-Schmiedeberg's Arch. exp. Path. Pharmak., 195, 71-74(1940)]. The animals were anesthetized with urethane (1.5 g/kg, intraperitoneally) and the trachea was cannulated. The animals were artificially ventilated by means of a respirator (Harvard apparatus rodent respirator) at a rate of 70 strokes/min and a constant volume of 5-7 ml. Inflation pressure was kept constantly at 10 cm H2 O. Changes in overflow of air from a side-arm of the cannula were recorded on Rectigraph-8S via a bronchospasm transducer for 15 min. LTD4 (10 μg/kg) was given into the […] through an indwelling cannula. Each specimen suspended in a 5% gum arabic solution was also given through the same cannula 1 or 24 hrs before the LTD4 administraction.

Series [4] has as its system PAF-induced bronchoconstriction. The series is described as follows: Effect on PAF-induced bronchoconstriction in guinea pigs. The class given is in vivo. The conditions noted are these: one hour before PAF. The protocol:
Platelet Activating Factor (PAF)-Induced Bronchoconstriction in Guinea Pigs
Experimental procedure in this experiment was the same as that in LTD4 -induced bronchoconstriction shown in Experimental example 7. PAF is an intraveneous dose of 1 μg/kg was used. Each specimen suspended in a 5% gum arabic solution was given orally one hour before the PAF administration.

Series [5] concerns the target T1, 5-Lipoxygenase (Rattus norvegicus, UniProt P12527).
T1 construct: endogenous in cells; host or cells: RBL-1 (rat basophilic leukemia cells)
T1 sequence (P12527 1-673): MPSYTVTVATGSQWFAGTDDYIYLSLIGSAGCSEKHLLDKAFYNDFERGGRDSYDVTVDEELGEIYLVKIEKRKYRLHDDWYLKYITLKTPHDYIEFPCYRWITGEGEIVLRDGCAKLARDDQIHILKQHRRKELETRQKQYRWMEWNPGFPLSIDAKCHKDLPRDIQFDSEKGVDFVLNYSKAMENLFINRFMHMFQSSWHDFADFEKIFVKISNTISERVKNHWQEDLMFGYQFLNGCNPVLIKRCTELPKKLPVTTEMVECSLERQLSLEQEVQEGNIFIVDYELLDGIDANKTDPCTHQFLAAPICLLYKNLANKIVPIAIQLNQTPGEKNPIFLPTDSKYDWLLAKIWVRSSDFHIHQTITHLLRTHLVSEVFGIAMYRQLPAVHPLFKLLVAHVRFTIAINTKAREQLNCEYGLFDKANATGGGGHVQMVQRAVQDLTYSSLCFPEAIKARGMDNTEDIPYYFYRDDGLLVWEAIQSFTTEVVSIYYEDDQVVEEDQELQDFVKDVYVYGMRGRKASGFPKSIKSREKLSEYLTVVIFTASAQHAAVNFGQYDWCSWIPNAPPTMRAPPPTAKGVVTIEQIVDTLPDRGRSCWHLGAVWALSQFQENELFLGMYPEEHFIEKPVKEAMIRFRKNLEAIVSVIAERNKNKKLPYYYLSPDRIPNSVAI
The series is described as follows: 5-Lipoxygenase inhibitory activity: 5-HETE production in RBL-1 cells (HPLC). Particulars: arachidonic acid + A 23187, 37° C., 20 minutes, read-out: 5-HETE production inhibiting effect (IC50). The format is cell-based, rat (RBL-1, rat basophilic leukemia cells). The method, then:
5-Lipoxygenase Inhibitory Activity
10^7 RBL-1 cells (rat basophilic leukemia cells) were suspended in 0.5 ml of MCM (mast cell medium), and test solutions (made up of 0.5 ml of MCM, 50 μg of arachidonic acid, 10 μg of A 23187 (calcium ionophore, Eli Lilly) and 1 μM, 0.1 μM, 0.01 μM and0.001 μM as the final concentration of the quinone compound, respectively) prepared previously were added respectively to the suspension, followed by reaction at 37° C. for 20 minutes. After the conclusion of the reaction, 4 ml of ethanol and 1,4-dimethoxy-2-methyl-3-(3-methoxypropyl)naphthalene as the internal reference drug were added to the reaction solution, and the mixture was shaken thoroughly and allowed to stand at room temperature for 10 minutes. Then, it was centrifuged (2000 r.p.m.) for 10 minutes, and the supernatant fluid was separated and concentrated to dryness under reduced pressure. 0.5 Milliliter of 60% aqueous methanol was added to the concentrate, and 100 μl of the resulting solution was taken and subjected to high-performance liquid chromatography to determine amount of 5-HETE (5-hydroxyeicosatetraenoic acid). Determination of 5-HETE was made through measurement of an absorption at 237 nm with a UV absorption monitor.
The 5-HETE production inhibitory effect (IE) was expressed by [formula] wherein a is a peak height or peak area corrected by the peak for the internal reference when the quinone compound is not contained; b is a peak height or peak area corrected by the peak for the internal reference when the quinone compound is contained.

The test system of series [6] is mice of ICR breed. The class given is in vivo. Particulars: 1000 mg/kg oral, male ICR mice, 7 days. The source says:
Acute Toxicity Test in Mice (Acute Toxicity)
1000 Milligrams per kilogram of each set specimen was applied orally to groups of 5 five-weeks old male mice of ICR breed, and a number of dead animals observed for the 7-days period was counted.

The structures appear in SMILES notation.

In general, inhibition refers to the change of the read-out against control, counted positive when it falls. Read a low inhibition as a response near the control. `Cc1c(C)c2c(c(C)c1O)CCC(C)(CCCC(C)CCCC(C)CCCC(C)C)O2` (racemic) [dl-α-tocophenol, reference compound] had an inhibition at 100 µM in series [1] (10^-4 M) of 11 ± 6%. This compound also displayed an inhibition at 10 µM in series [1] (10^-5 M) of 3 ± 2%.

By inhibition in vivo is commonly meant how much of the control response was suppressed. `COc1ccc(C(CCCCC(=O)O)C2=C(C)C(=O)C(C)=C(C)C2=O)cc1` (stereo not shown) [Compound No. 22, 6-(3,5,6-trimethyl-1,4-benzoquinon-2-yl)-6-(4-methoxyphenyl)hexanoicacid] returned an inhibition in vivo at 20 mg/kg in series [2] of 82%. The “% Inhibition of LTD4-induced bronchoconstriction” value in series [3] (0.313 mg/kg, 1 hr. before LTD4) came out at 39%; in series [3] (1.25 mg/kg, 1 hr. before LTD4) it was 85%; in series [3] (5 mg/kg, 1 hr. before LTD4), 90%; in series [3] (5 mg/kg, 24 hrs. before LTD4), 24%. In addition, the “% Inhibition of PAF-induced bronchoconstriction” value was 43% in series [4] (0.313 mg/kg oral), 92% in series [4] (1.25 mg/kg oral) and 91% in series [4] (5 mg/kg oral).

The term IC50 denotes the point on the concentration scale where inhibition reaches its midpoint. As for `CC1=C(C)C(=O)C(C(CCCCCC(=O)O)c2ccc(F)cc2)=C(C)C1=O` (stereo not shown) [Compound No. 87], the IC50 in series [5] came to 100 nM. In series [2], this compound had an inhibition in vivo at 20 mg/kg of 81%. Also, the “Acute toxicity (number of dead animals/number of animals used)” value in series [6] is 0/5. The “% Inhibition of LTD4-induced bronchoconstriction” value in series [3] (0.313 mg/kg, 1 hr. before LTD4) came out at 80%; in series [3] (1.25 mg/kg, 1 hr. before LTD4), 89%; in series [3] (5 mg/kg, 1 hr. before LTD4) it was 93%; in series [3] (5 mg/kg, 24 hrs. before LTD4), 79%. The results for the “% Inhibition of PAF-induced bronchoconstriction” value in series [4] (0.08 mg/kg oral), in series [4] (0.313 mg/kg oral) and in series [4] (1.25 mg/kg oral) were 64%, 48% and 71%, respectively.

The compound `CC1=C(C)C(=O)C(C(CCCCCC(=O)O)c2ccc(Cl)cc2)=C(C)C1=O` (stereo not shown) [Compound No. 90, 7-(4-chlorophenyl)-7-(3,5,6-trimethyl-1,4-benzoquinon-2-yl)heptanoic acid] had an inhibition in vivo at 20 mg/kg in series [2] of 61%. The “Acute toxicity (number of dead animals/number of animals used)” value in series [6] was 0/5.

Turning to `COc1ccc(C(CCCCCC(=O)O)C2=C(C)C(=O)C(C)=C(C)C2=O)cc1` (stereo not shown) [compound 23], the IC50 in series [5] was found to be 10 nM. This compound also came in with an inhibition in vivo at 20 mg/kg in series [2] of 83%. Also, the “% Inhibition of LTD4-induced bronchoconstriction” value amounted to 69% in series [3] (0.313 mg/kg, 1 hr. before LTD4); 80% in series [3] (1.25 mg/kg, 1 hr. before LTD4); 68% in series [3] (5 mg/kg, 1 hr. before LTD4); 49% in series [3] (5 mg/kg, 24 hrs. before LTD4). Moreover, the “% Inhibition of PAF-induced bronchoconstriction” value was 75% in series [4] (0.08 mg/kg oral), 71% in series [4] (0.313 mg/kg oral) and 73% in series [4] (1.25 mg/kg oral).

Compound `CC1=C(C)C(=O)C(C(CCCCCC(=O)O)c2ccc(C)s2)=C(C)C1=O` (stereo not shown) [compound 33] came in with an inhibition in vivo at 20 mg/kg in series [2] of 75%. Besides, the “Acute toxicity (number of dead animals/number of animals used)” value in series [6] is reported as 0/5.

Take `CC1=C(C)C(=O)C(C(CCCC(=O)O)c2ccccc2)=C(C)C1=O` (stereo not shown) [compound 36]: the 50% inhibitory concentration (IC50) in series [5] is 320 nM. This compound showed an inhibition in vivo at 20 mg/kg in series [2] of 80%. Besides, the “Acute toxicity (number of dead animals/number of animals used)” value in series [6] is 0/5.

`COC1=C(OC)C(=O)C(C(CCCCCC(=O)O)c2ccc(F)cc2)=C(C)C1=O` (stereo not shown) [compound 88] came in with an inhibition in vivo at 20 mg/kg in series [2] of 79%. Besides, in series [6], the “Acute toxicity (number of dead animals/number of animals used)” value is 0/5.

Regarding `CC1=C(C(CCCCCC(=O)O)c2ccc(Cl)cc2)C(=O)c2ccccc2C1=O` (stereo not shown) [compound 92], 20 mg/kg produced 92% inhibition in vivo in series [2]. Besides, in series [6], the “Acute toxicity (number of dead animals/number of animals used)” value is listed as 0/5.

In series [2], `COC1=C(OC)C(=O)C(C(CCCCCC(=O)O)c2ccc(C)cc2)=C(C)C1=O` (stereo not shown) [compound 94] showed an inhibition in vivo at 20 mg/kg of 81%. Further, the “Acute toxicity (number of dead animals/number of animals used)” value in series [6] is 0/5.

For the compound `CC1=C(C)C(=O)C(C(CCCCCC(=O)O)c2ccc(C(C)C)cc2)=C(C)C1=O` (stereo not shown) [compound 95], the inhibition in vivo at 20 mg/kg in series [2] worked out at 63%. In series [6], the “Acute toxicity (number of dead animals/number of animals used)” value is recorded as 0/5.

On to `COc1ccc(C(CCCCCC(=O)O)C2=C(C)C(=O)C(C)=C(C)C2=O)cc1OC` (stereo not shown) [compound 97], for which, in series [2], the inhibition in vivo at 20 mg/kg amounted to 85%. Moreover, in series [6], the “Acute toxicity (number of dead animals/number of animals used)” value is on record as 0/5.
